# Experimental data: publication doi:10.1101/2021.08.27.457891v1, “Optical Control of Invertebrate nAChR and Behaviors with Dithienylethene-Imidacloprid” (biorxiv, 2021)
# pIC50, pKd: −log10 of the molar value.
# Legend:
# [1] = biological target: T1, Musca nAChR; housefly (Musca domestica) nAChR; assay: [3H]NMI radioligand displacement; format: binding; details: competition with [3H]NMI
# T1 construct: gene nAChRalpha1; pentameric channel
# [2] = biological target: T2, cockroach nAChRs; cockroach nAChR membranes; assay: fluorescence polarization saturation binding; design: species or system Periplaneta americana; details: DitIMI irradiated at 320 nm for 15 min (photostationary mixture, 67% closed form); 227 mg/L membranes; 22 °C, 1 h
# T2 construct: gene nAChRalpha1; pentameric channel
structure (smiles),measurement,setting,value
CC12SC(CN3CCN(Cc4ccc(Cl)nc4)C3=N[N+](=O)[O-])=CC1=C1C(=C3C=C(CN4CCN(Cc5ccc(Cl)nc5)C4=N[N+](=O)[O-])SC32C)C(F)(F)C(F)(F)C1(F)F (stereo not shown) [closed-DitIMI],pIC50,"[1]; after UV illumination, photostationary mixture (67% closed form)",7.48
same,pKd,[2],7.87
Cc1sc(CN2CCN(Cc3ccc(Cl)nc3)C2=N[N+](=O)[O-])cc1C1=C(c2cc(CN3CCN(Cc4ccc(Cl)nc4)C3=N[N+](=O)[O-])sc2C)C(F)(F)C(F)(F)C1(F)F [open-DitIMI],pIC50,[1]; unirradiated open form,6.05
O=[N+]([O-])N=C1NCCN1Cc1ccc(Cl)nc1 [IMI],pIC50,[1],7.54
